System: presynaptic dopamine receptor (dopamine autoreceptor)
Test: rat gamma-butyrolactone (GBL) model, in-vivo presynaptic dopamine agonist (autoreceptor agonist) activity
Settings: i.p.
Method: Indicative of potential neuroleptic activity of the compounds of the invention, the in-vivo presynaptic dopamine agonist activity (also called dopamine autoreceptor agonist activity) is determined in the rat gamma-butyrolactone (GBL) model by a modification of the procedure described by Walters and Roth, Naunyn Schmiedeberg's Arch. Pharmacol. 296, 5 (1976). In this model, a presynaptic dopamine agonist inhibits the GBL-induced accumulation of the dopamine precursor DOPA after pretreatment with 3-hydroxybenzylhydrazine (NSD-1015), a DOPA decarboxylase inhibitor.
Test compounds are dissolved in 0.9% saline, with sodium metabisulfite to prevent oxidation, if required. […] Dihydroxyphenylalanine (DOPA) is analyzed by High Pressure Liquid Chromatography/Electrochemistry (HPLC/EC) techniques using a Bio-analytical Systems (BAS) Model LC-150 series Liquid Chromatograph. […] Compounds are detected with an electro-chemical detector having an oxidizing potential of 0.7 volts and sensitivity setting of 20 nAmps/V. Tissue concentrations and recoveries are calculated by using the internal standard dihydroxybenzylamine (DHBA). […] Data is statistically analysed by one-way Analysis of Variance with Duncan's Multiple Comparison Test. The activity of the test compounds is determined as the percent inhibition of DOPA accumulation at a given dose. […]

CCCN1CCC[C@@H]2c3cc(O)ccc3OC[C@H]21.Cl (relative stereo) [trans-9-hydroxy-4-propyl-1,2,3,4a,5,10b-hexahydro-4H-[1]-benzopyrano[3,4-b]pyridine hydrochloride]
ED50 in the GBL model (inhibition of DOPA accumulation by 50%): about 0.16 mg/kg

Reference: patent US4721787A, “Process for the preparation of benzo-(pyrano and thiopyrano)-pyridines” (Ciba-Geigy Corporation, priority 1985, dated 1988)
